From article PMC7822874, “Chemoprotective antimalarials identified through quantitative high-throughput screening of Plasmodium blood and liver stage parasites” (Scientific Reports, 2021) come the findings set out here.

Each structure is given as a SMILES string.

The first series can be described thus: in vitro. Conditions: human, hepg2-a16-cd81egfp cells.
The viability is a read-out of living cells in per cent, often relative to untreated cells. `Oc1ccc(Br)cc1CN1CCN(c2ccccc2)CC1` [MLS000106609]: the viability at 3 µM was 99.8%.

For `C[n+]1c2ccccc2nc2ccc(NCCO)cc21.[O-][Cl+3]([O-])([O-])[O-]` [MLS001164888], the viability at 3 µM is 97.2%.

Still in this series, the particulars now being: human, hepg2-a16-cd81egfp cells, % viability.
Turning to `O=C1N(c2ccccc2C(F)(F)F)OC1(Cc1ccccc1)c1ccccc1` (stereo not drawn) [MLS002206595], the viability at 3 µM was 85%.

In the case of `COc1ccc2nc(N3CCN(C(=O)c4ccc([N+](=O)[O-])o4)CC3)sc2c1` [MLS001234236], the viability at 3 µM worked out at 89.3%.

Turning to `O=C(Nc1ccc(S(=O)(=O)N2CCOCC2)cc1)c1cc(-c2cc(Cl)ccc2O)n[nH]1` [MLS000778989], the viability at 3 µM came out at 73.1%.

Turning to `O=C(Nc1ccc(C(F)(F)F)cc1)N1CCN(c2ccnc3cc(Cl)ccc23)CC1` [MLS000830170], the viability at 3 µM stood at 90.8%.

Turning to `O=C1C(=O)c2ncccc2-c2cccnc21` [NCGC00160369], the viability at 3 µM was determined as 24.2%.

For `CC[C@]1(c2ccccc2OC)ON(c2ccccc2C(F)(F)F)C1=O` [MLS002206607], the viability at 3 µM stood at 102%.

Take `Cc1ccc(NC(=O)N(Cc2ccc3c(c2)OCO3)Cc2cc3cc4c(cc3[nH]c2=O)OCCO4)cc1` [MLS000033889]: the viability at 3 µM worked out at 101%.

As to `O=[S+]([O-])(c1ccc(Cl)cc1)N1CCN(C(=S)Nc2ccc(F)c(Cl)c2)CC1` [NCGC00345140], the viability at 3 µM came out at 85.6%.

In the case of `COc1ccc2nc(C)cc(NCc3cccc(C(F)(F)F)c3)c2c1` [MLS001174340], the viability at 3 µM came out at 95.4%.

Turning to `O=C(CCl)Nc1cccc(-c2cnc3ccccc3n2)c1` [MLS000541295], the viability at 3 µM amounted to 88.6%.

Consider `COc1ccc2cc3cc(C(=O)NCC4CCCO4)oc3nc2c1` (stereo not drawn) [MLS000091914], for which the viability at 3 µM came out at 106%.

In the case of `COc1ccccc1CNC(=O)CCn1c(=O)[nH]c2ccsc2c1=O` [MLS000044764], the viability at 3 µM came out at 109%.

Turning to `CCOC(=O)c1c(CN(C)C)n(-c2ccc(C)cc2)c2cc(Br)c(O)cc12` [MLS000705141], the viability at 3 µM amounted to 97.3%.

Turning to `COc1cccc(C2C3=C(N=c4sc(=Cc5ccccc5O)c(=O)n42)c2ccccc2CC3)c1OC` (stereo not drawn) [MLS000580951], the viability at 3 µM turned out to be 92.9%.

As to `Cc1cc(N2CCC(C)CC2)nc(-n2nc(C)cc2C)n1` [MLS000109839], the viability at 3 µM was 98.6%.

In the case of `O=C(Nc1ccc(Br)cc1)c1ccc(F)c([S+](=O)([O-])NC2CCCCCC2)c1` [NCGC00139407], the viability at 3 µM came out at 78.6%.

As for `COc1ccc2c(c1)C=C([C@@H]1C[C@H]3CN(c4ccccc4)C(=O)[C@]34CCCN14)CO2` [MLS000734809], the viability at 3 µM was found to be 95.7%.

Consider `Cc1ccc(/C=N/NC(=O)c2nnn(-c3nonc3N)c2-c2ccc3c(c2)OCO3)s1` [MLS001142659], for which the viability at 3 µM came to 90.4%.

Turning to `Oc1c(C(Nc2nccs2)c2ccc(C(F)(F)F)cc2)ccc2cccnc12` (stereo not drawn) [MLS000774842], the viability at 3 µM was determined as 43.8%.

Regarding `C/C(=N\NC(=O)c1cccc(Br)c1)c1ccccn1` [MLS001232242], the viability at 3 µM was 81.3%.

Take `CCN1CCN(Cc2ccc(NC(=O)c3cc(NC(=O)c4cncc(-c5ccc(C#N)cc5)c4)cc(OC)c3)cc2C(F)(F)F)CC1` [MLS000911575]: the viability at 3 µM amounted to 99.9%.

`CCOc1ccc(-n2c(SCC(N)=O)nc3sc4c(c3c2=O)CCN(C)C4)cc1` [MLS000332254]: the viability at 3 µM amounted to 95.7%.

For the compound `C/C(=N\NC(=O)c1ccccc1OCc1ccc(F)cc1)c1ccccn1` [MLS002162875], the viability at 3 µM was 82%.

For `COc1ccc(Cl)cc1NC(=O)c1cc(-c2cc(C)ccc2O)[nH]n1` [MLS000779126], the viability at 3 µM is 108%.

For the compound `O=C1c2ccccc2-n2c1nc1ccccc1c2=O` [MLS001049121], the viability at 3 µM was found to be 81.6%.

With `COc1cc(C(=O)OCC(=O)N2CCCCC2C)cc(NC(=O)c2cccs2)c1OC` (stereo not drawn) [MLS001003405], the viability at 3 µM turned out to be 97.3%.

Consider `CC(C)(C)OC(=O)N1CCC(CC2CC(c3ccccc3)=NO2)(C(=O)NCc2ccccc2)CC1` (stereo not drawn) [MLS002174287], for which the viability at 3 µM worked out at 99.3%.

With `OCCCNc1cc(-c2ccnc(Nc3cccc(Cl)c3)n2)ccn1` [NCGC00346940], the viability at 3 µM stood at 8.46%.

For the compound `CCN1CCN(Cc2ccc(NC(=O)c3cc(NC(=O)c4cc(-c5ccc(OC)cc5)n[nH]4)cc(OC)c3)cc2C(F)(F)F)CC1` [MLS000911571], the viability at 3 µM was determined as 97%.

On to `CC(Oc1ccc(F)cc1)C(=O)Nc1cc(C(F)(F)F)ccc1-n1cncn1` (stereo not drawn) [MLS001160637], for which the viability at 3 µM was found to be 101%.

Consider `c1ccc(-c2cccc(-c3ccccn3)n2)nc1` [MLS000048666], for which the viability at 3 µM is 19.2%.

On to `OC(CNC1CCCc2ccccc21)COc1c(Cl)cccc1Cl` (stereo not drawn) [MLS000334339], for which the viability at 3 µM is 100%.

Turning to `CC1(C)Cc2ccccc2C2=NNC(=O)C2=N1` [MLS000709658], the viability at 3 µM worked out at 94.5%.

Regarding `O=C(Nc1nc(-c2ccccn2)cs1)c1cccc(-n2cnnn2)c1` [MLS000770597], the viability at 3 µM is 63.7%.

For the compound `CCOC(=O)c1nnn(-c2nonc2N)c1-c1ccc(Br)cc1` [MLS000727795], the viability at 3 µM was 96.5%.

`Clc1ncnc2scc(-c3ccc(Br)cc3)c12` [MLS000591637]: the viability at 3 µM amounted to 99.5%.

For the compound `COc1ccccc1CNCC(O)Cn1c2ccccc2c2ccccc21` (stereo not drawn) [MLS000391556], the viability at 3 µM was 92.6%.

As for `O=C(/C(=C/c1ccc(Cl)cc1)c1nc2ccccc2[nH]1)c1cccs1` [MLS000565128], the viability at 3 µM came to 79.2%.

Consider `COc1ccc([C@@]2(C(C)C)ON(c3ccccc3C(F)(F)F)C2=O)cc1` [MLS002206606], for which the viability at 3 µM came to 83.8%.

Regarding `CCOc1ccccc1NC(C)C(=O)Nc1cc(C(F)(F)F)ccc1N1CCOCC1` (stereo not drawn) [MLS000336343], the viability at 3 µM worked out at 99.6%.

`COc1ccc(-n2nc(C(=O)NCC(=O)N3CCN(c4ccccc4OC)CC3)c3ccccc3c2=O)c(OC)c1` [MLS000936211]: the viability at 3 µM stood at 90.4%.

For the compound `CC(=O)Nc1ccc(Nc2cc(C)nc(Nc3ccc(NC(C)=O)cc3)n2)cc1` [MLS001359830], the viability at 3 µM stood at 93.2%.

Regarding `Cc1ccc(-[n+]2c(-c3ccc(Cl)cc3)cn3c2CCC3)cc1` [MLS000780005], the viability at 3 µM was 90.4%.

In the case of `Oc1ccccc1Nc1nc(NCc2ccccc2)c2ccccc2n1` [MLS000693415], the viability at 3 µM was 90.9%.

For the compound `CC1CCN(c2ccc(C(=O)NCc3ccco3)cc2[N+](=O)[O-])CC1` [MLS000389854], the viability at 3 µM stood at 91.2%.

As for `CC(C)c1ccccc1OCC(O)CN(CC(O)COc1cccc2ccccc12)C(C)C` (stereo not drawn) [MLS001179995], the viability at 3 µM worked out at 100%.

As for `Cc1noc(C)c1CSc1nc2sc3c(c2c(=O)n1C)CCCC3` [MLS000564913], the viability at 3 µM amounted to 89.9%.

With `CCOc1cc(C(=O)N2CCC(CC3CC(c4ccc(Cl)cc4)=NO3)(C(=O)NCC3CCCCC3)CC2)cc(OCC)c1OCC` (stereo not drawn) [MLS001143937], the viability at 3 µM is 93.2%.

With `CCOc1cccc(CNCCc2c(C)[nH]c3ccc(OC(F)(F)F)cc23)c1O` [MLS001198351], the viability at 3 µM was 70.5%.

As for `OCC[n+]1ccc(/C=C/c2c[nH]c3ccccc23)cc1` [MLS000585200], the viability at 3 µM amounted to 90.7%.

Consider `CCc1ccccc1OC[C@@H](O)CN[C@H]1CCCc2ccccc21` [MLS002172481], for which the viability at 3 µM was found to be 97.6%.

On to `Clc1ccc2c(N/N=C/c3cccc(Br)c3)ccnc2c1` [MLS000336198], for which the viability at 3 µM stood at 87.2%.

On to `Cc1ccc(O)c(-c2cc(C(=O)Nc3ccc(S(=O)(=O)N4CC(C)OC(C)C4)cc3)n[nH]2)c1` (stereo not drawn) [MLS000042695], for which the viability at 3 µM came to 87.1%.

As for `CC1(C)N=C(N)N=C(N)N1c1ccc(OCCCOc2ccccc2)c(Cl)c1` [MLS000738223], the viability at 3 µM was 34.6%.

Turning to `Clc1ccc(CCC(Cn2ccnc2)Sc2c(Cl)cccc2Cl)cc1` (stereo not drawn) [NCGC00179596], the viability at 3 µM stood at 100%.

Regarding `CCCCCCCc1c(C)[nH]c(N2CCOCC2)nc1=O` [MLS000531187], the viability at 3 µM is 90.5%.

With `COc1ccccc1-c1cc(C(=O)N2CCN(S(=O)(=O)c3ccc(C)cc3)CC2)[nH]n1` [MLS000924750], the viability at 3 µM is 96.6%.

As for `CCC1(OC(=O)CN)C(=O)OCc2c1cc1n(c2=O)Cc2cc3ccccc3nc2-1` (stereo not drawn) [MLS000766263], the viability at 3 µM was found to be 29.3%.

Turning to `CCOC(=O)c1sc2nc3c(SCCC#N)cc(C(=O)c4cc(F)ccc4O)cn3c(=O)c2c1C` [MLS000393119], the viability at 3 µM is 91.3%.

With `COc1cccc(NC(=O)CN(C)C(=O)c2ccc(-c3cccc(C(F)(F)F)c3)o2)c1` [MLS001071804], the viability at 3 µM amounted to 90.3%.

Regarding `COc1cc(OC)c(NC2=CC(=O)C(=O)c3ccccc32)cc1Cl` [MLS001198657], the viability at 3 µM was found to be 62%.

In the case of `COc1cccc(NC(=O)CN(C)C(=O)c2oc3c(ccc4ccccc43)c2C)c1` [MLS001142056], the viability at 3 µM turned out to be 101%.

Regarding `CN(CC(=O)Nc1cccc(F)c1)C(=O)c1ccc(-c2ccc(Cl)cc2)o1` [MLS001078811], the viability at 3 µM amounted to 105%.

For the compound `Cc1ccc(C(=O)Nc2nc(-c3ccccn3)cs2)cc1S(=O)(=O)N1CCOCC1` [MLS002157637], the viability at 3 µM was found to be 58.9%.

Consider `Cc1cccc(Nc2cc(C)c3c(O)cccc3n2)c1C` [MLS000586980], for which the viability at 3 µM came out at 88.1%.

Regarding `CC(C)(C)Nc1nc(NC(C)(C)C)nc(-n2ccnc2)n1` [MLS000044025], the viability at 3 µM was 90.9%.

For `COc1ccc(C2Sc3ccccc3N=C3C2=C(O)c2ccccc23)c(OC)c1OC` (stereo not drawn) [NCGC00108825], the viability at 3 µM stood at 43.7%.

Turning to `CN(C)CCCn1cnc2c(c1=N)C(c1ccccc1)c1ccc3ccccc3c1O2` (stereo not drawn) [MLS001216375], the viability at 3 µM was 106%.

For the compound `COc1cc(C2NCc3ccccc3-n3cccc32)ccc1O` (stereo not drawn) [MLS000047988], the viability at 3 µM was determined as 102%.

Consider `COc1cc2nc(Nc3ccc(F)cc3)nc(N)c2cc1OC` [NCGC00107353], for which the viability at 3 µM turned out to be 92.7%.

For `Cc1cc(O)c(-c2cc(C(=O)Nc3ccc(S(=O)(=O)N4CCOCC4)cc3)[nH]n2)cc1C` [MLS000042703], the viability at 3 µM was 93.1%.

As to `COc1cnc(-c2ccccn2)nc1N(C)c1ccccc1` [MLS001166302], the viability at 3 µM stood at 90.7%.

For `O=C(Nc1ccc2c(N3CCCCC3)ncnc2c1)c1cc(F)cc(F)c1` [NCGC00425525], the viability at 3 µM turned out to be 53.4%.
